The results in this text go back to patent US20160193148A1, “LIPOSOMAL FORMULATIONS FOR THE TREATMENT OF BACTERIAL INFECTIONS” (UNIVERSITY OF GEORGIA RESEARCH FOUNDATION, INC., priority 2013, published 2016).

The structures appear in SMILES notation.

This assay has as its system R. equi. As to the kind of experiment: Intracellular killing of R. equi in J774.A1 macrophages. It is filed as cell-based, Rhodococcus equi. The conditions noted are these: 10 μg/mL; J774.A1 macrophages infected with virulent R. equi; 4 experiments. How it is done:
The efficacy of liposomal gentamicin compared with clarithromycin or rifampin for intracellular killing of R. equi in J774.A1 macrophages were studies in this example. […] The final concentration of gentamicin in the liposome formulations was measured and the percentage of encapsulation was calculated.
In vitro infection of J774A.1 macrophages with virulent R. equi and subsequent treatment with liposomal gentamicin (G-DP or G-PEG), clarithromycin (CLR), or rifampin (RIF) at a concentration of 10 μg/mL was performed using a published methodology (i.e. Berghaus et al. Plasma pharmacokinetics, pulmonary distribution, and in vitro activity of gamithromycin in foals. J Vet Pharmacol Ther. 2012 February; 35(1):59-66). […] Fold reduction in the number of intracellular R. equi compared to untreated cells in J774.A1 macrophages infected with virulent R. equi are presented in FIG. 2, showing mean (±SD) of 4 independent experiments.

Consider `CC[C@H]1OC(=O)[C@H](C)[C@@H](O[C@H]2C[C@@](C)(OC)[C@@H](O)[C@H](C)O2)[C@H](C)[C@@H](O[C@@H]2O[C@H](C)C[C@H](N(C)C)[C@H]2O)[C@](C)(OC)C[C@@H](C)C(=O)[C@H](C)[C@@H](O)[C@]1(C)O` [CLR, clarithromycin], for which the “mean fold-reduction in the number of intracellular R. equi compared to untreated cells” value turned out to be 1100 fold.
For `CO[C@H]1/C=C/O[C@@]2(C)Oc3c(C)c(O)c4c(O)c(c(/C=N/N5CCN(C)CC5)c(O)c4c3C2=O)NC(=O)/C(C)=C\C=C\[C@H](C)[C@H](O)[C@@H](C)[C@@H](O)[C@@H](C)[C@H](OC(C)=O)[C@@H]1C` [RIF, rifampin] the value was 1500 fold.
